# From publication PMC12481029, “Design, synthesis, antiproliferative assessments, and computational studies of new quinolin-2(1H)-ones as dual EGFR/HER-2 inhibitors” (Frontiers in Chemistry, 2025)
# Values joined by “and” are separate entries in the source; they are usually repeats but may differ in a detail not shown here. Equal values may be shown once. Read-outs that look alike come from different tables or passages of the source.
# Key:
# HER-2 = HER-2 (Homo sapiens, UniProt P04626); assay: HER-2 inhibitory assay (ADP-Glo kinase assay)
# Protocol: The ADP-Glo™ Kinase Assay was used for kinase activity detection, related kinases information: HER-2 (ab60866, Abcam), with a concentration of 100 ng/mL. Target compounds were dissolved in DMSO to obtain drug solutions with different concentrations, and the compound concentrations in the final reaction system (100 μL) were 1 nM, 20 nM, 40 nM, 80 nM, and 100 nM, respectively. 10μL of the solution containing compounds was transferred to a 96-well plate, then added 40 μL of 1 × kinase buffer (50 mM HEPES, pH 7.5) to each well, and mixed the mixture in the 96-well plate on a shaker for 10 min. Next, added 25 μL of ADP-Glo™ reagent to the above wells, mixed and incubated for another 40 min. Distributed 10 μL kinase detection reagent to the reaction and incubated for 30 min. Finally, the full-wavelength microplate reader was used to record the OD value.
# Bcl-2 = Bcl-2 level assay; conditions: MCF-7 cells; for Bcl-2 Fold reduction: versus control
# Protocol: Mix all reagents thoroughly without foaming before use. Wash the microwells twice with approximately 300 μL Wash Buffer per well with thorough aspiration of microwell contents between washes. Take caution not to scratch the surface of the microwells. After the last wash, empty the wells and tap microwell strips on absorbent pad or paper towel to remove excess Wash Buffer. Use the microwell strips immediately after washing or place upside down on a wet absorbent paper for not longer than 15 minutes. […] Add 100 μL of Sample Diluent in duplicate to all standard wells and to the blank wells. […] Add 100 μL of Sample Diluent, in duplicate, to the blank wells. Add 80 μL of Sample Diluent, in duplicate, to the sample wells. Add 20 μL of each Sample, in duplicate, to the designated wells. Add 50 μL of diluted biotin-conjugate to all wells, including the blank wells. Cover with a plate cover and incubate at room temperature, on a microplate shaker at 100 rpm if available, for 2 hours. Remove plate cover and empty the wells. Wash microwell strips 3 times as described in step 2. Add 100 μL of diluted Streptavidin-HRP to all wells, including the blank wells. Cover with a plate cover and incubate at room temperature, on a microplate shaker at 100 rpm if available, for 1 hour. Remove plate cover and empty the wells. Wash microwell strips 3 times as described in step 2. […] Pipette 100 μl of mixed TMB Substrate Solution to all wells, including the blanks. Incubate the microwell strips at room temperature (18° to 25°C) for about 15 minutes, if available on a rotator set at 100 rpm. Avoid direct exposure to intense light. The point, at which the substrate reaction is stopped, is often determined by the ELISA reader. Many ELISA readers record absorbance only up to 2.0 O.D. Therefore, the color development within individual microwells must be watched by the person running the assay and the substrate reaction stopped before positive wells are no longer properly detectable. Stop the enzyme reaction by quickly pipetting 100 μL of Stop Solution into each well, including the blank wells. It is important that the Stop Solution is spread quickly and uniformly throughout the microwells to completely inactivate the enzyme. Results must be read immediately after the Stop Solution is added or within one hour if the microwell strips are stored at 2 - 8°C in the dark. Read absorbance of each microwell on a spectrophotometer using 450 nm as the primary wavelength.
# [1] = system: four human cancer cell lines (A-549, MCF-7, Panc-1, HT-29); assay: Antiproliferative assay, average over four cancer cell lines; assay type: cell-based; conditions: for GI50: Homo sapiens, average IC50 over the four cancer cell lines
# EGFR = EGFR (Homo sapiens, UniProt P00533); assay: EGFR inhibitory assay (EGFR-TK test); conditions: EGFR inhibition IC50 ± SEM
# Protocol: 5ʹ upstream to the EGFR sequence comprised a sequence that encoded (His)6. Sf-9 cells were infected for 72h for protein expression. The pellets of Sf-9 cells were solubilized in a buffer containing sodium vanadate (100 μM), aprotinin (10 μg/mL), triton (1%), HEPES buffer(50mM), ammonium molybdate (10 μM), benzamidine HCl (16 μg/mL), NaCl (10 mM),leupeptin (10 μg/mL) and pepstatin (10 μg/mL) at 0°C for 20 min at pH 7.4, followed by centrifugation for 20 min. To eliminate the nonspecifically bound material, a Ni-NTA super flow packed column was used to pass through and wash the crude extract supernatant first with 10mM and then with 100 mM imidazole. Histidine-linked proteins were first eluted with 250 and then with 500 mM imidazole subsequent to dialysis against NaCl (50 mM), HEPES (20 mM), glycerol (10%) and 1 μg/mL each of aprotinin, leupeptin and pepstatin for 120 min. The purification was performed either at 4 °C or on ice. To record autophosphorylation level, EGFR kinase assay was carried out on the basis of DELFIA/Time-Resolved Fluorometry. […] Each compound (10 μL) was incubated with recombinant enzyme (10 μL, 5 ng for EGFR, 1:80 dilution in 100 mM HEPES) for 10 min at 25 °C, subsequent to the addition of 5X buffer (10 μL, containing 2 mM MnCl2, 100 μM Na3VO4, 20 mM HEPES and 1 mM DTT) and ATP-MgCl2 (20 μL, containing 0.1 mM ATP and 50 mM MgCl2) and incubation for 1h. The negative and positive controls were included in each plate by the incubation of enzyme either with or without ATP-MgCl2. The liquid was removed after incubation and the plates were washed thrice using a wash buffer. The Europium-tagged antiphosphotyrosine antibody (75 μL, 400 ng) was added to each well followed by incubation of 1h and then washing of the plates using buffer. […] The autophosphorylation percentage inhibition by compounds was calculated using the following equation:
# The majority of signals detected by antiphosphotyrosine antibody were from EGFR because the enzyme preparation contained low impurities.
# [2] = system: pancreatic (Panc-1) cancer cell line; assay: Antiproliferative assay, Panc-1; assay type: cell-based; conditions: Homo sapiens, read-out: Antiproliferative activity IC50 ± SEM, Panc-1
# From the text: (§1) The MTT assay ([Al-Wahaibi et al., 2022]; [Mahmoud et al., 2023]) was employed to assess the antiproliferative effects of compounds 3a-h and 5a-g on four human cancer cell lines: colon (HT-29) cancer, pancreatic (Panc-1) cancer, lung (A-549) cancer, and breast (MCF-7) cancer cell lines. Erlotinib was applied as a reference. Table 1 presents the median inhibitory concentration (IC50) and average IC50 (GI50) values for each compound evaluated on the four cancer cell lines.
# (§2) Compounds 3a-h and 5a-g were tested for their antiproliferative activities on four human cancer cell lines: colon (HT-29), pancreatic (Panc-1), lung (A-549), and breast (MCF-7) using the MTT assay ([Al-Wahaibi et al., 2022]; [Mahmoud et al., 2023]). Erlotinib was applied as a reference.
# (§3) To explore the antiproliferative potential of compounds propidium iodide fluorescence assay was performed using different cell lines such as Panc-1 (pancreas cancer cell line), MCF-7 (breast cancer cell line), HT-29 (colon cancer cell line) and A-549 (epithelial cancer cell line), respectively. To calculate the total nuclear DNA, a fluorescent dye (propidium iodide, PI) is used which can attach to the DNA, thus offering a quick and precise technique. PI cannot pass through the cell membrane and its signal intensity can be considered as directly proportional to quantity of cellular DNA. Cells whose cell membranes are damaged or have changed permeability are counted as dead ones. The assay was performed by seeding the cells of different cell lines at a density of 3000-7500 cells/well (in 200μl medium) in culture plates followed by incubation for 24h at 37 °C in humidified 5%CO2/95% air atmospheric conditions. The medium was removed; the compounds were added to the plates at 10 μM concentrations (in 0.1% DMSO) in triplicates, followed by incubation for 48h. DMSO (0.1%) was used as control. After incubation, medium was removed followed by the addition of PI (25 μl, 50μg/mL in water/medium) to each well of the plates. At -80 °C, the plates were allowed to freeze for 24 h, followed by thawing at 25 °C. A fluorometer (Polar-Star BMG Tech) was used to record the readings at excitation and emission wavelengths of 530 and 620 nm for each well. The percentage cytotoxicity of compounds was calculated using the following formula: […]
# Caspase-8 = Caspase-8 activation assay; assay type: cell-based, human; conditions: MCF-7 cells; for Caspase-8 Fold change: versus control
# Protocol: (§4) Refer to Supplementary Appendix A.
# (§5) (Cells are Plated in a density of 1.2 – 1.8 × 10,000 cells/well in a volume of 100µl complete growth medium + 100 ul of the tested compound per well in a 96-well plate for 24 hours before the enzyme assay for Tubulin.). The absorbance of each microwell was read on a spectro-photometer at 450 nm. A standard curve is prepared from 7human Caspase-8 standard dilutions and human Caspase-8 concentration determined.
# Bax = Bax level assay; conditions: MCF-7 cells; for Bax Fold change: versus control
# Protocol: Bring all reagents, except the human Bax-α Standard, to room temperature for at least 30 minutes prior to opening. The human Bax-α Standard solution should not be left at room temperature for more than 10 minutes. All standards, controls and samples should be run in duplicate. Refer to the Assay Layout Sheet to determine the number of wells to be used and put any remaining wells with the desiccant back into the pouch and seal the ziploc. Store unused wells at 4 °C. Pipet 100 μL of Assay Buffer into the S0 (0 pg/mL standard) wells. Pipet 100 μL of Standards #1 through #6 into the appropriate wells. Pipet 100 μL of the Samples into the appropriate wells. Tap the plate gently to mix the contents. Seal the plate and incubate at room temperature on a plate shaker for 1 hour at ~500 rpm. Empty the contents of the wells and wash by adding 400 μL of wash solution to every well. Repeat the wash 4 more times for a total of 5 washes. After the final wash, empty or aspirate the wells and firmly tap the plate on a lint free paper towel to remove any remaining wash buffer. Pipet 100 μL of yellow Antibody into each well, except the Blank. Seal the plate and incubate at room temperature on a plate shaker for 1 hour at ~500 rpm. Empty the contents of the wells and wash by adding 400 μL of wash solution to every well. Repeat the wash 4 more times for a total of 5 washes. After the final wash, empty or aspirate the wells and firmly tap the plate on a lint free paper towel to remove any remaining wash buffer. Add 100 μL of blue Conjugate to each well, except the Blank. Seal the plate and incubate at room temperature on a plate shaker for 30 minutes at ~500 rpm. Empty the contents of the wells and wash by adding 400 μL of wash solution to every well. Repeat the wash 4 more times for a total of 5 washes. After the final wash, empty or aspirate the wells and firmly tap the plate on a lint free paper towel to remove any remaining wash buffer. Pipet 100 μL of Substrate Solution into each well. Incubate for 30 minutes at room temperature on a plate shaker at ~500 rpm. Pipet 100 μL Stop Solution to each well. Blank the plate reader against the Blank wells, read the optical density at 450 nm. Calculate the average net Optical Density (OD) bound for each standard and sample by subtracting the average Blank OD from the average OD for each standard and sample. Using linear graph paper, plot the Average Net OD for each standard versus Bax concentration in each standard. Approximate a straight line through the points. The concentration of Bax in the unknowns can be determined by interpolation.
# Caspase-3 = Caspase-3 activation assay; assay type: cell-based, human; conditions: MCF-7 cells; for Caspase-3 Fold change: versus control
# Protocol: as §4
# Allow all reagents to reach room temperature before use. Gently mix all liquid reagents prior to use. Determine the number of 8-well strips needed for the assay. Insert these in the frame(s) for current use. Add 100 μl of the Standard Diluent Buffer to the zero standard wells. Well(s) reserved for chromogen blank should be left empty. Add 100 μl of standards and controls or diluted samples to the appropriate microtiter wells. The sample dilution chosen should be optimized for each experimental system. Tap gently on side of plate to mix. Cover wells with plate cover and incubate for 2 hours at room temperature. Thoroughly aspirate or decant solution from wells and discard the liquid, Wash wells 4 times. […] Tap gently on the side of the plate to mix. Cover plate with plate cover and incubate for 1 hour at room temperature. Thoroughly aspirate or decant solution from wells and discard the liquid, Wash wells 4 times. Add 100 μl Anti-Rabbit IgG HRP Working Solution to each well except the chromogen blank(s). Prepare the working dilution as described in Preparing IgG HRP. Cover wells with the plate cover and incubate for 30 minutes at room temperature. Thoroughly aspirate or decant solution from wells and discard the liquid. Wash wells 4 times. Add 100 μl of Stabilized Chromogen to each well. The liquid in the wells will begin to turn blue. Incubate for 30 minutes at room temperature and in the dark. The incubation time for chromogen substrate is often determined by the microtiter plate reader used. Many plate readers have the capacity to record a maximum optical density (O.D.) of 2.0. The O.D. values should be monitored, and the substrate reaction stopped before the O.D. of the positive wells exceeds the limits of the instrument. The O.D. values at 450 nm can only be read after the Stop Solution has been added to each well. […] Add 100 μl of Stop Solution to each well. Tap side of plate gently to mix. The solution in the wells should change from blue to yellow. Read the absorbance of each well at 450 nm having blanked the plate reader against a chromogen blank composed of 100 μl each of Stabilized Chromogen and Stop Solution. Read the plate within 2 hours after adding the Stop Solution. Use a curve fitting software to generate the standard curve. […] Read the concentrations for unknown samples and controls from the standard curve. Multiply value(s) obtained for sample(s) by the appropriate dilution factor to correct for the dilution in step 3.
# Cytochrome C = Cytochrome C assay; conditions: MCF-7 cells; for Cytochrome C Fold change: versus control
# Protocol: This lysate was diluted in Standard Diluent Buffer over the range of the assay and measured for cytochrome C content. (Cells are Plated in cells/well in a volume of 100µl complete growth medium + 100 µl of the tested compound + 50 µl of 1X biotin conjugated antibody+ 100 µl of 1X streptavidin-HRP+ 100 µL TMB substrate solution of per well in a 96-well plate for 24 hours before assay).
# [3] = system: lung (A-549) cancer cell line; assay: Antiproliferative assay, A-549; assay type: cell-based; conditions: Homo sapiens, A549; read-out: Antiproliferative activity IC50 ± SEM, A-549
# From the text: as §1, §2, §3
# Caspase-9 = Caspase-9 activation assay; assay type: cell-based, human; conditions: MCF-7 cells; for Caspase-9 Fold change: versus control
# Protocol: To elucidate the apoptotic mechanism of compounds 3d and 5a, whether via the intrinsic or extrinsic pathway, their impact on caspase-8 and caspase-9 was evaluated.
# RPMI 1640 with 10% FBS was used to assist the cells grow at 37 °C, and then the cells were treated with the compounds being studied to check the activity of caspase-3, -8, and -9 ([Hisham et al., 2019]). Refer to Supplementary Appendix A.
# as §5, with “Cells were obtained from American Type Culture Collection, cells were grown in RPMI 1640 containing 10% fetal bovine serum at 37°C, stimulated with the compounds to be tested for caspase8, and lysed with Cell Extraction Buffer. This lysate was diluted in Standard Diluent Buffer over the range of the assay and measured for human active caspase-8 content. (Cells” for “(Cells”
# [4] = Cell viability assay (MTT), normal mammary cells; conditions: human, MCF-10A normal mammary epithelial cells
# Protocol: (§6) MTT assay was performed to investigate the effect of the synthesized compounds on mammary epithelial cells (MCF-10A). The cells were propagated in medium consisting of Ham's F-12 medium/ Dulbecco's modified Eagle's medium (DMEM) (1:1) supplemented with 10% foetal calf serum, 2 mM glutamine, insulin (10 μg/mL), hydrocortisone (500 ng/mL) and epidermal growth factor (20 ng/mL). Trypsin ethylenediamine tetra acetic acid (EDTA) was used to passage the cells after every 2-3 days. 96-well flat-bottomed cell culture plates were used to seed the cells at a density of 10^4 cells mL^-1. The medium was aspirated from all the wells of culture plates after 24 h followed by the addition of synthesized compounds (in 200 μL medium to yield a final concentration of 0.1% (v/v) dimethyl sulfoxide) into individual wells of the plates. Four wells were designated to a single compound. The plates were allowed to incubate at 37°C for 96 h. Afterwards, the medium was aspirated and 3-[4,5-dimethylthiazol-2-yl]-2,5-diphenyltetrazolium bromide (MTT) (0.4 mg/mL) in medium was added to each well and subsequently incubated for 3 h. The medium was aspirated and 150 μL dimethyl sulfoxide (DMSO) was added to each well. The plates were vortexed followed by the measurement of absorbance at 540 nm on a microplate reader.
# [5] = system: breast (MCF-7) cancer cell line; assay: Antiproliferative assay, MCF-7; assay type: cell-based; conditions: Homo sapiens, MCF7; read-out: Antiproliferative activity IC50 ± SEM, MCF-7
# From the text: as §1, §2, §3
# [6] = system: colon (HT-29) cancer cell line; assay: Antiproliferative assay, HT-29; assay type: cell-based; conditions: Homo sapiens, read-out: Antiproliferative activity IC50 ± SEM, HT-29
# [7] = system: MCF-7 human breast cancer cell line; assay: Flow cytometric cell cycle analysis; assay type: cell-based
# in vitro = conditions: human
# Protocol: as §6
# [8] = system: breast (MCF-7) cancer cell line; design: method as in Voigtlaender et al., 2018; conditions: ref Voigtlaender et al., 2018, cited from earlier work; for IC50: read-out: IC50 against the MCF-7 cell line
# [9] = system: panel of cancer cell lines; design: method as in Voigtlaender et al., 2018; conditions: ref Voigtlaender et al., 2018; read-out: GI50 against a panel of cancer cell lines; cited from earlier work
# HER-2, sequence (P04626 676-1255 limits assumed): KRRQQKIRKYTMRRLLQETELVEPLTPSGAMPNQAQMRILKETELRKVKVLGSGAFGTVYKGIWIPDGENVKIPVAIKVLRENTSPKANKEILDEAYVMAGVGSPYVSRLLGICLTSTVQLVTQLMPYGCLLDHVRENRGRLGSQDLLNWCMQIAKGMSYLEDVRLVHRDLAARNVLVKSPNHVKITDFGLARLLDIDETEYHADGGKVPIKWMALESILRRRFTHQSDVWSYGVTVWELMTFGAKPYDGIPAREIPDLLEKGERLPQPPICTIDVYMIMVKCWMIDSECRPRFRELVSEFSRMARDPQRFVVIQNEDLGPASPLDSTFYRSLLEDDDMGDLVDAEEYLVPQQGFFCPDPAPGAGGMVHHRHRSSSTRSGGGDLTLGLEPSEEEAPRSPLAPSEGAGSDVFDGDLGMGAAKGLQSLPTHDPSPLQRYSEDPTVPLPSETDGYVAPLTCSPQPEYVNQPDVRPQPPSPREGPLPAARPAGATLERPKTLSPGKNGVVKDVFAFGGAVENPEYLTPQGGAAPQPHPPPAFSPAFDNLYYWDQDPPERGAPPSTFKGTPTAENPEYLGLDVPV
# EGFR, sequence (P00533 669-1210): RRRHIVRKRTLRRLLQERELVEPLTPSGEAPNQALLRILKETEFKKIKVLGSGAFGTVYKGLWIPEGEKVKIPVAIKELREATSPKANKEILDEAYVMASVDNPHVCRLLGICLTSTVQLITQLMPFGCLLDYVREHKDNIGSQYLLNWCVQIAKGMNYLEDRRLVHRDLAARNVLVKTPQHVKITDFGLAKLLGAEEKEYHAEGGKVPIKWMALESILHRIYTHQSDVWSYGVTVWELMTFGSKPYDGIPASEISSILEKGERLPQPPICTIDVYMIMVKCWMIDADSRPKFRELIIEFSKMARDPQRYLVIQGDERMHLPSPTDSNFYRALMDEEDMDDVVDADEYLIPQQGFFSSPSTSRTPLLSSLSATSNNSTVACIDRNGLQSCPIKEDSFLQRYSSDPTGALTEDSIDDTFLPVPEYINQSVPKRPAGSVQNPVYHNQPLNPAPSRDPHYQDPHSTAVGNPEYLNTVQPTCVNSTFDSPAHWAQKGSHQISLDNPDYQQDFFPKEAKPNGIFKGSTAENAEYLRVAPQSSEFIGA
SMILES,IC50 (HER-2),Bcl-2 Conc (Bcl-2),Bcl-2 Fold reduction (Bcl-2),GI50 [1],IC50 (EGFR),IC50 [2],Caspase-8 Conc (Caspase-8),Caspase-8 Fold change (Caspase-8),Bax Conc (Bax),Bax Fold change (Bax),Caspase-3 Conc (Caspase-3),Caspase-3 Fold change (Caspase-3),Cytochrome C Conc (Cytochrome C),Cytochrome C Fold change (Cytochrome C),IC50 [3],Caspase-9 Conc (Caspase-9),Caspase-9 Fold change (Caspase-9),IC50 [5],IC50 [6],IC50 [8],further results
"Cc1ccc(S(=O)(=O)N/N=C/c2c(O)c3ccccc3[nH]c2=O)cc1 [Compound 3d, (E)-N'-((4-hydroxy-2-oxo-1,2-dihydroquinolin-3-yl)methylene)-4-methyl benzenesulfonohydrazide]",38 ± 2 nM,0.80 ng/mL,6,41 nM,91 ± 6 nM,43 ± 4 nM,2.10 ± 0.20 ng/mL,23,310 pg/mL and 310 ± 2 pg/mL,34,515 ± 5 pg/mL,8.0,0.65 ng/mL,13,40 ± 3 nM,21 ± 3 ng/mL,21,37 ± 3 nM,42 ± 4 nM,,"Fold less effective than erlotinib (GI50) ([1]; ratio to erlotinib GI50 = […] nM): 1.3; viability at 4 days, 50 µM [4]: 91%"
"O=c1[nH]c2ccccc2c(O)c1/C=N/Nc1ccc([N+](=O)[O-])cc1[N+](=O)[O-] [Compound 5a, (E)-3-((2-(2,4-Dinitrophenyl)hydrazono)methyl)-4-hydroxyquinolin-2(1H)-one]",33 ± 2 nM,0.70 ng/mL,7,37 nM,87 ± 5 nM,38 ± 3 nM,2.65 ± 0.25 ng/mL,29,320 pg/mL and 320 ± 2 pg/mL,35,570 ± 5 pg/mL,9.0,0.85 ng/mL,17,36 ± 3 nM,24 ± 1 ng/mL,24,34 ± 3 nM,38 ± 3 nM,,"Times less potent than lapatinib, HER-2 inhibition (HER-2; ratio to lapatinib IC50): 1.3; Fold less effective than erlotinib (GI50) [1]: 1.2; Percentage of cells in G2/M phase [7]: 1.94%; Percentage of cells in S phase ([7]; control 26.82%): 15.65%; viability at 4 days, 50 µM (in vitro): 88%"
O=c1[nH]c2ccccc2c(O)c1/C=N/c1ccc(NS(=O)(=O)c2ncccn2)cc1 [Compound III],,,,,,,,,,,,,,,,,,,,23 nM,"Times more potent than erlotinib, MCF-7 ([8]; ratio of IC50 values): 1.8; GI50 [9]: 25 nM"
"C#Cc1cccc(Nc2ncnc3cc(OCCOC)c(OCCOC)cc23)c1 [Erlotinib, reference compound]",,,,,,30 ± 3 nM,,,,,,,,,30 ± 3 nM,,,40 ± 3 nM,30 ± 3 nM,40 nM,
